From patent US20240400584A1, “COMPOUNDS AND METHODS FOR MODULATING SPLICING” (REMIX THERAPEUTICS INC., priority 2021, published 2024)

Assays:
[1] = tested on: HTT; test: Gene panel canonical junction qPCR assay, HTT CJ mRNA (Table 7); assay type: cell-based, human; conditions: Homo sapiens, read-out: HTT CJ mRNA decrease IC50
Outline: (§1)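 IC50 values reflect compound concentration giving 50% reduction in canonical exon–exon junction mRNA. Cell lysates from A673 or K562 treatments were reverse-transcribed and probed by junction-spanning qPCR, normalized to a housekeeper and vehicle, then fitted to a 4-parameter logistic equation.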

[2] = tested on: SMN2; test: Gene panel canonical junction qPCR assay, SMN2 CJ mRNA (Table 7); assay type: cell-based; conditions: Homo sapiens, read-out: SMN2 CJ mRNA decrease IC50
Outline: as §1

[3] = tested on: HTT; test: RT-qPCR splicing assay, HTT AJ/CJ mRNA; assay type: cell-based, human; conditions: Homo sapiens, A673 or K562 cells; for IC50: decrease in canonical junction mRNA; for AC50: increase in alternative junction mRNA
Outline: (§2)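 Cells: A673 (DMEM/10% FBS) or K562 (IMDM/10% FBS). Dosing: 11-pt 3-fold, top 10 uM final, DMSO ≤0.25%, 24 h, 37° C. Readout: one-step RT-qPCR on lysate, CJ vs AJ isoforms; ΔCt vs housekeeper, ΔΔCt vs DMSO, 2^(−ΔΔCt) RQ → % response.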

[4] = tested on: Target C; test: Gene panel canonical junction qPCR assay, Target C CJ mRNA (Table 7); assay type: cell-based, human; conditions: Homo sapiens, read-out: Target C CJ mRNA decrease IC50
Outline: as §1

[5] = tested on: MYB; test: RT-qPCR splicing assay, MYB AJ/CJ mRNA; assay type: cell-based; conditions: Homo sapiens, A673 or K562 cells, 24 hours; for IC50: decrease in canonical junction mRNA; for AC50: increase in alternative junction mRNA
Outline: as §2

[6] = tested on: MYB; test: Gene panel canonical junction qPCR assay, MYB CJ mRNA (Table 7); assay type: cell-based; conditions: Homo sapiens, read-out: MYB CJ mRNA decrease IC50
Outline: as §1

IC50 [1]	IC50 [2]	IC50 [4]	IC50 [5]	IC50 [6]	IC50 ([3]; 24 h)	Structure (SMILES)	IC50 ([3]; 24 hours)	AC50 ([3]; 24 hours)	AC50 [5]	AC50 ([3]; 24 h)
< 0.1 µM	< 0.1 µM	0.1 to 1 µM	0.1 to 1 µM	0.1 to 1 µM	< 0.1 µM	COc1cc(-c2ccc3c(c2)COc2nc(N4CCC(NC(C)(C)C(C)C)C4)ccc2-3)cnn1 (stereo not shown) [Compound 316, N-(2,3-dimethylbutan-2-yl)-1-[8-(6-methoxypyridazin-4-yl)-6H-isochromeno[3,4-b]pyridin-3-yl]pyrrolidin-3-amine]			0.1 to 1 µM	0.1 to 1 µM
> 10 µM	1 to 10 µM	1 to 10 µM	> 10 µM	> 10 µM	> 10 µM	COc1cnnc(-c2ccc3c(c2)COc2nc(N4CCC(NC(C)(C)C)C4)ccc2-3)c1 (stereo not shown) [Compound 292]			> 10 µM	> 10 µM
1 to 10 µM	1 to 10 µM	> 10 µM	> 10 µM	> 10 µM	1 to 10 µM	CN1C[C@@H]2CN(c3ccc4c(n3)OCc3cc(-n5cccn5)ccc3-4)C[C@@H]2C1 [Compound 170]			1 to 10 µM	1 to 10 µM
0.1 to 1 µM	< 0.1 µM	0.1 to 1 µM	0.1 to 1 µM	0.1 to 1 µM	0.1 to 1 µM	CC1(NC2CCN(c3ccc4c(n3)OCc3cc(-c5cn[nH]c5)ccc3-4)C2)CC1 (stereo not shown) [Compound 253, N-(1-methylcyclopropyl)-1-[8-(1H-pyrazol-4-yl)-6H-isochromeno[3,4-b]pyridin-3-yl]pyrrolidin-3-amine]			0.1 to 1 µM	< 0.1 µM
0.1 to 1 µM	< 0.1 µM	0.1 to 1 µM	0.1 to 1 µM	0.1 to 1 µM	0.1 to 1 µM	COc1cc(-c2ccc3c(c2)COc2nc(N4CCN[C@H](C(C)(C)C)C4)ccc2-3)cnn1 [Compound 317, 5-{3-[(3R)-3-tert-butylpiperazin-1-yl]-6H-isochromeno [3,4-b]pyridin-8-yl}-3-methoxypyridazine]			0.1 to 1 µM	0.1 to 1 µM
< 0.1 µM	< 0.1 µM	0.1 to 1 µM	0.1 to 1 µM	0.1 to 1 µM	< 0.1 µM	COc1cc(-c2ccc3c(c2)COc2nc(N4CCNC(C(C)(C)C)C4)ccc2-3)cnn1 (stereo not shown) [Compound 304]			0.1 to 1 µM	< 0.1 µM
1 to 10 µM	1 to 10 µM	> 10 µM	> 10 µM	> 10 µM	1 to 10 µM	COc1cc(-c2ccc3c(c2)COc2nc(N4CCC(N)CC4)ccc2-3)cnn1 [Compound 288]			> 10 µM	1 to 10 µM
0.1 to 1 µM	0.1 to 1 µM	1 to 10 µM	1 to 10 µM	1 to 10 µM	0.1 to 1 µM	COc1cc(-c2ccc3c(c2)COc2nc(N4CCN5CCCC5C4)ccc2-3)cnn1 (stereo not shown) [Compound 283]			1 to 10 µM	1 to 10 µM
> 10 µM	0.1 to 1 µM	> 10 µM	1 to 10 µM	1 to 10 µM	> 10 µM	c1cnn(-c2ccc3c(c2)COc2nc(N4CCC5(CCCNC5)C4)ccc2-3)c1 (stereo not shown) [Compound 183]			> 10 µM	> 10 µM
> 10 µM	> 10 µM	> 10 µM	> 10 µM	> 10 µM	> 10 µM	CC(C)(C)NC1CCN(c2ccc3c(n2)OCc2cc(-c4c(F)cn[nH]c4=O)ccc2-3)C1 (stereo not shown) [Compound 315, 4-{3-[3-(tert-butylamino)pyrrolidin-1-yl]-6H-isochromeno[3,4-b]pyridin-8-yl}-5-fluoro-2H-pyridazin-3-one]			> 10 µM	> 10 µM
0.1 to 1 µM	0.1 to 1 µM	1 to 10 µM	0.1 to 1 µM	0.1 to 1 µM	0.1 to 1 µM	CCN(C)C1CCN(c2ccc3c(n2)OCc2cc(-c4cnnc(OC)c4)ccc2-3)C1 (stereo not shown) [Compound 310]			1 to 10 µM	0.1 to 1 µM
> 10 µM	> 10 µM	> 10 µM	> 10 µM	> 10 µM	> 10 µM	CC(C)Oc1cc(-c2ccc3c(c2)COc2nc(N4CCC(NC(C)(C)C)C4)ccc2-3)cnn1 (stereo not shown) [Compound 263, N-tert-butyl-1-[8-(6-isopropoxypyridazin-4-yl)-6H-isochromeno[3,4-b]pyridin-3-yl]pyrrolidin-3-amine]			> 10 µM	> 10 µM
< 0.1 µM	< 0.1 µM	0.1 to 1 µM	0.1 to 1 µM	0.1 to 1 µM	< 0.1 µM	COc1cc(-c2ccc3c(c2)COc2nc(N4CC[C@H](NC(C)(C)C)C4)ccc2-3)cnn1 [Compound 269, (3S)—N-tert-butyl-1-[8-(6-methoxypyridazin-4-yl)-6H-isochromeno[3,4-b]pyridin-3-yl]pyrrolidin-3-amine]			1 to 10 µM	0.1 to 1 µM

Structure (SMILES)	IC50 [1]	IC50 [2]	IC50 [4]	IC50 [5]	IC50 [6]	IC50 ([3]; 24 h)	IC50 ([3]; 24 hours)	AC50 ([3]; 24 hours)	AC50 [5]	AC50 ([3]; 24 h)
COc1cc(-c2ccc3c(c2)COc2nc(N4CCC(NC(C)C)CC4)ccc2-3)cnn1 [Compound 301, N-isopropyl-1-[8-(6-methoxypyridazin-4-yl)-6H-isochromeno[3,4-b]pyridin-3-yl] piperidin-4-amine]	1 to 10 µM	1 to 10 µM	1 to 10 µM	1 to 10 µM	1 to 10 µM		1 to 10 µM	0.1 to 1 µM	1 to 10 µM	
COc1cc(-c2ccc3c(c2F)COc2nc(N(C)[C@@H]4C[C@H]5CC[C@@H](C4)N5)ccc2-3)cnn1 [Compound 245, N-((1R,3s,5S)-8-azabicyclo[3.2.1]octan-3-yl)-7-fluoro-8-(6-methoxypyridazin-4-yl)-N-methyl-6H-isoch-romeno[3,4-b]pyridin-3-amine]	< 0.1 µM	< 0.1 µM	< 0.1 µM	< 0.1 µM	< 0.1 µM	< 0.1 µM			< 0.1 µM	< 0.1 µM
CN(c1ccc2c(n1)OCc1cc(-n3cccn3)ccc1-2)C1CCNCC1 [Compound 175]	> 10 µM	1 to 10 µM	> 10 µM	> 10 µM	> 10 µM	> 10 µM			> 10 µM	1 to 10 µM
COc1cc(-c2ccc3c(c2)COc2nc(O[C@@H]4C[C@H]5CC[C@@H](C4)N5)ncc2-3)cnn1 [Compound 298]	0.1 to 1 µM	< 0.1 µM	1 to 10 µM	1 to 10 µM	1 to 10 µM	0.1 to 1 µM			0.1 to 1 µM	0.1 to 1 µM
CN1C[C@@H]2[C@H](C1)[C@H]2N(C)c1ccc2c(n1)OCc1cc(-n3cccn3)ccc1-2 [Compound 196]	> 10 µM	> 10 µM	> 10 µM	> 10 µM	> 10 µM	> 10 µM			> 10 µM	> 10 µM
c1cnn(-c2ccc3c(c2)COc2nc(N[C@@H]4C[C@H]5CC[C@@H](C4)N5)ccc2-3)c1 [Compound 179]	0.1 to 1 µM	0.1 to 1 µM	0.1 to 1 µM	0.1 to 1 µM	0.1 to 1 µM	0.1 to 1 µM			0.1 to 1 µM	0.1 to 1 µM
COc1cc(-c2ccc3c(c2)COc2nc(OC4CC5CC(F)(F)C(C4)N5)ccc2-3)cnn1 (stereo not shown) [Compound 225, 6,6-difluoro-3-{[8-(6-methoxypyridazin-4-yl)-6H-isochromeno[3,4-b]pyridin-3-yl]oxy}-8-azabicyclo[3.2.1]octane]	0.1 to 1 µM	1 to 10 µM	> 10 µM	> 10 µM	> 10 µM	0.1 to 1 µM			> 10 µM	1 to 10 µM
CCN(c1ccc2c(n1)OCc1cc(-n3cccn3)ccc1-2)C1CC(C)(C)NC(C)(C)C1 [Compound 189]	> 10 µM	1 to 10 µM	> 10 µM	1 to 10 µM	1 to 10 µM	> 10 µM			> 10 µM	1 to 10 µM
COc1cc(-c2ccc3c(c2)COc2nc(N(C)C4CC(C)(C)NC(C)(C)C4)ccc2-3)cnn1 [Compound 231, N-[8-(6-methoxypyridazin-4-yl)-6H-isochromeno[3,4-b]pyridin-3-yl]-N,2,2,6,6-pentamethylpiperidin-4-amine]	0.1 to 1 µM	< 0.1 µM	0.1 to 1 µM	0.1 to 1 µM	0.1 to 1 µM	0.1 to 1 µM			1 to 10 µM	0.1 to 1 µM
[2H]C([2H])([2H])N(c1ccc2c(n1)OCc1cc(-n3cccn3)ccc1-2)C1C[C@H]2CCC[C@@H](C1)N2 (stereo partly shown) [Compound 200]	< 0.1 µM	< 0.1 µM	0.1 to 1 µM	0.1 to 1 µM	0.1 to 1 µM	< 0.1 µM			0.1 to 1 µM	< 0.1 µM
